Experiments:
[1] = target: T1, a1B-adrenoceptor (Rattus norvegicus, UniProt P15823); test: [3H]-prazosin competition binding, rat spleen membranes; conditions: read-out: Receptor Affinity (pKi) a1B (converted)
T1 construct: The submaxillary glands, spleen, and aorta of rats were separately homogenized; from tissue; host or cells: Wistar rat spleen membranes
T1 sequence (P15823 1-515): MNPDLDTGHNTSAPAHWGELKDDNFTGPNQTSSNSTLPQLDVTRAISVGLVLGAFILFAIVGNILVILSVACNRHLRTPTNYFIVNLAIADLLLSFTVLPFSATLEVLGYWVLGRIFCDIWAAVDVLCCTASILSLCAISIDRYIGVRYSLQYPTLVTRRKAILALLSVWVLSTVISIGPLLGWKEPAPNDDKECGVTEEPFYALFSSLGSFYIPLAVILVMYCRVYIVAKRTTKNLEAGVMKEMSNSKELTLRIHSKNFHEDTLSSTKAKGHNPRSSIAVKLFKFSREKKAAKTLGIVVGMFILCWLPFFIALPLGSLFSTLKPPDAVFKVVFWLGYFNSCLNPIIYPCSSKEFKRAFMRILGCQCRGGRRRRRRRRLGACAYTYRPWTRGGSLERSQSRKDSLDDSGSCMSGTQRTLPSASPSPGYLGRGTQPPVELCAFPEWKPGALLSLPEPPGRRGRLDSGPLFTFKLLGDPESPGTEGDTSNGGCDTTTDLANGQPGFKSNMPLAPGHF
Description: Wistar rats were obtained from National Laboratory Animal Breeding and Research Center (Taipei, Taiwan) and housed under a constant temperature and controlled illumination. The submaxillary glands, spleen, and aorta of rats were separately homogenized for 30 seconds with a Kinematica polytron in 20 volumes of ice-cold TE buffer (10 mM Tris HCl, 1 mM EDTA, 0.1 mM ascorbic acid, pH 7.4). The homogenate was filtered under pressure through muslin and the filtrate was centrifuged at 1,000 g for 10 minutes. The supernatant was centrifuged again at 10,000 g for 12 minutes at 4° C. The second supernatant was centrifuged at 30,000 g for 15 minutes at 4° C., and the final pellet was resuspended in the assay buffer (75 mM Tris HCl, 25 mM MgCl2, pH 7.4). Protein content was determined by Bradford's method.
[^3H]-prazosin, KMUP-1 and membranes (200-300 μg) were incubated for 60 minutes at 25° C. with or without the addition of nonspecific binding agents, in a 75 mM Tris HCl buffer with 25 mM MgCl2, making a final volume of 500 μL. In this experiment, non-specific binding was defined by use of 10 μM phentolamine. […] Membrane-bound radioligand trapped in the filters was counted in a Beckman LS6500 scintillation system (Fullerton, Calif.) with an efficiency of 45%. In each experiment, nonspecifically bound radioligand agents were measured by incubating membrane protein. […]

[2] = system: sGCa1; test: Western blot of sGCa1 expression in rat prostate
Description: Prostate strips were incubated with KMUP-1 (10-100 μM), sildenafil (100 μM) and zaprinast (100 μM) in 10 mL Tyrode solution aerated with 95% O2 and 5% CO2 for 1 hour. To examine the possible mechanisms of KMUP-1 action, the rat prostate were pretreated with ODQ (10 μM), SQ22536 (10 μM) and RP-8pCPT-cGMPs (10 μM) for 30 minutes prior to the addition of KMUP-1 (100 μM).
In order to examine the expression of Rho kinase in prostate, the prostate strips were pre-incubated with phenylephrine (10 μM) for 30 minutes. After a pre-treatment of phenylephrine, KMUP-1 (10-100 μM) and Y-27632 (10 μM) were further incubated for 30 minutes. After the incubation time, the prostate were extracted with protein extraction reagent (Pierce Biotechnology, Inc., Rockford, Ill., USA.). The PZ-HPV-7 cells were incubated with and without KMUP-1 (0.1-10 μM) at 30 minutes, 8 and 24 hours. They were then washed rapidly with ice-cold PBS, incubated with protein extraction reagent, and scraped from the plates. The prostate tissues and cells were sonicated three times for 10 second each time and centrifuged at 13,000 rpm at 4° C. for 30 minutes. The protein concentrations of supernatants were determined, using bovine serum albumin as the standard. Tissue and cell extract protein were then boiled at a ratio of 4:1 with sample buffer (100 mM Tris, pH 6.8, 20% glycerol, 4% SDS, and 0.2% bromphenol blue). 40-60 μg protein was used in this experiment. Electrophoresis was performed using 10 or 12% SDS-polyacrylamide gel electrophoresis and then transferred to nitrocellulose membranes (Millipore Corporation, Billerica, Mass.). The membrane was blocked with Tris-buffered saline (20 mM Tris and 137 mM NaCl, pH 7.6) containing 0.1% Tween 20 (TTBS) and 5% non-fat milk at room temperature for 1 hour, washed with TTBS, and then incubated overnight at 4° C. in the appropriate primary antibody of PKG (Santa Cruz, 1:200), sGCa1 (Santa Cruz, 1:200), PKA (Abcam, 1:1000), ROCK2 (Upstate, 1:1000), and PDE5A (BD Biosciences, 1:1000), p21 (Upstate, 1:1000). The membranes were washed in TTBS before being incubated with horseradish peroxidase-conjugated antibody against mouse, goat, or rabbit IgG (Santa Cruz, 1:1000) for 1 hour. The membrane was then washed in TTBS and developed with the enhanced chemiluminescence (ECL) for the detection of the specific antigen. The intensity of the bands was measured by densitometry.

## Cn1c(=O)c2c(ncn2CCN2CCN(c3ccccc3Cl)CC2)n(C)c1=O [KMUP-1, 7-[2-[4-(2-Chlorobenzene)piperazinyl]ethyl]-1,3-dimethyl xanthine]
[1]
  Ki: 115 nM
[2]; KMUP-1 100 μM after pretreatment of ODQ 10 μM for 30 minutes
  expression of sGCa1: significantly reduce
[2]; KMUP-1 10-100 μM, sildenafil, zaprinast 100 μM, 1 hour
  expression of sGCa1: most potently induces

— patent US20090306093A1, “METHOD FOR TREATING PATIENT HAVING BENIGN PROSTATE HYPERPLASIA” (KAOHSIUNG MEDICAL UNIVERSITY, priority 2008, published 2009)
